Source: PMC9505425, “Targeting of the Mitochondrial TET1 Protein by Pyrrolo[3,2-b]pyrrole Chelators” (International Journal of Molecular Sciences, 2022)
Several values for one entry are separate records, joined by “and”; a condition that tells them apart may be missing. Identical values can stand only once.

Assays:
BT-20 cells = test: MTT cytotoxicity assay, BT-20; type: cell-based, human
Procedure: (§1) The effects of the tested compounds 1–6 on HF-P4, U-118 MG, H1299, BT-20, and Caov-3 cell lines were evaluated by the MTT assay during 48 h treatment (Table 2 and Tables S2–S31). In all tested compounds, we recognized a difference in cytotoxicity between healthy cells (HF-P4) and cancer cell lines (BT-20, Caov-3, and H-1299). […] In the case of ovarian cancer, the authors discovered oncogenic and poor prognosis roles of TET1 in epithelial ovarian carcinoma (EOC). TET1 is believed to demethylate the epigenome and activate numerous oncogenic pathways in EOC. The aforementioned study presents a new mechanism where TET1 contributes to tumor development through collaboration with CK2α [21]. The overexpression of the TET1 protein was also found in triple negative breast cancer and was associated with an activation of PI3K/mTOR pathway and decreased overall survival.
The human mammary gland/breast cell line (BT-20), purchased from ATCC (BT-20 (ATCC® HTB-19™), Manassas, VA, USA), was used for the cytotoxicity assay (MTT), and BT-20 cells were cultivated under standard conditions in Eagle’s minimum essential medium (ATCC, Manassas, VA, USA) supplemented with 10% FBS and streptomycin (100 μg/mL) at 37 °C at a 5% CO2 atmosphere.
(§2) For the cytotoxicity assay, we used the following cell lines: human glioblastoma cell line U118-MG, human mammary gland/breast cell line BT-20, human ovary adenocarcinoma cell line Caov-3, and non-small-cell lung carcinoma H-1299. As previously mentioned, these cell lines contain a high level of the TET1 protein, which corresponds to a lower overall survival. In addition to these cell cultures, we used the human dermal fibroblast cell line HF-P4 as a healthy control. Determination of cytotoxicity was performed using the MTT [3-(4,5-dimethylthiazol-2-yl)-2,5-diphenyltetrazolium bromide] colorimetric assay. Viable cells from each cell line were cultured in 96-well plates (VWR, Stříbrná Skalice, Czech Republic) at a density of 1.0 × 10^5 cells per well and allowed to grow for 24 h in 200 μL of recommended medium. After a 1-day incubation, the medium was replaced with solutions of compounds 1–6 at concentration ranges of 0.1–20 μM. Each concentration was measured four times within one test, and the entire test was repeated three times. Tested compounds 1–6 were dissolved in DMSO and then diluted with corresponding medium to a final volume of 200 μL (maximum 1% DMSO). After 48 h exposure, cells were treated with 175 μL of MTT solution (P-LAB, Prague, Czech Republic) for 2 h. In the next step, MTT solution was removed, and 125 μL of DMSO (Penta, Prague, Czech Republic) was added to solubilize dark crystals of formazan formed in intact cells, and absorbance was measured at 570 nm by the enzyme-linked immunoabsorbent assay reader Infinite® 200 PRO (Tecan, Männedorf, Switzerland). The final DMSO concentration was smaller than 1% (v/v). The absorbance of untreated cells was considered 100%, and IC50 values were calculated by the GraphPad Prism 8 software. As a parameter for cytotoxicity, we used a concentration that inhibits 50% of cell growth (IC50).

U-118 MG cells = test: MTT cytotoxicity assay, U-118 MG; type: cell-based, human; conditions: 48 h
Procedure: as §1
A human glioblastoma cell line (U118-MG) and a human non-small-cell lung carcinoma cell line (H1299) were used for the cytotoxicity assay (MTT). Both cell lines were generously supplied by Dr. M. Masařik, PhD, Department of Pathological physiology, Masaryk University, Czech Republic. U118-MG cells were cultivated under standard conditions in Dulbecco’s modified Eagle’s medium (ATCC, Manassas, VA, USA) supplemented with 10% FBS and streptomycin (100 μg/mL) at 37 °C at a 5% CO2 atmosphere. H1299 cells were cultivated under standard conditions in RPMI 1640 (BioTech, Prague, Czech Republic) medium supplemented with 10% FBS and streptomycin (100 μg/mL) at 37 °C at a 5% CO2 atmosphere.
as §2

CCN(CC)c1ccc(/C=N/NC(=O)c2ccc(-c3cc4c(cc(-c5ccc(C(=O)N/N=C/c6ccc(N(CC)CC)cc6O)cc5)n4-c4ccc(C)cc4)n3-c3ccc(C)cc3)cc2)c(O)c1 [Compound 2]
Cell viability % (BT-20 cells; BT-20, 100 nM, 48 h, repeats, 0.1 µM): 89.53% and 96.38% and 111.3369% | Cell viability % (BT-20 cells; BT-20, 500 nM, 48 h, repeats, 0.5 µM): 89.9% and 93.14% | Cell viability % (BT-20 cells; BT-20, 750 nM, 48 h, repeats, 0.75 µM): 105.3004% and 102.8159% | Cell viability % (BT-20 cells; BT-20, 1 uM, 48 h, repeats, 1 µM): 123.7041% and 111.0298% and 97.09% | Cell viability % (BT-20 cells; BT-20, 2.5 uM, 48 h, repeats, 2.5 µM): 100.513% and 96.3761% | Cell viability % (BT-20 cells; BT-20, 5 uM, 48 h, repeats, 5 µM): 79.33% and 68.98% | Cell viability % (BT-20 cells; BT-20, 7.5 uM, 48 h, repeats, 7.5 µM): 62.62% and 57% | Cell viability % (BT-20 cells; BT-20, 10 uM, 48 h, repeats, 10 µM): 57.5% and 51.13% | Cell viability % (BT-20 cells; BT-20, 15 uM, 48 h, repeats, 15 µM): 49.9% and 44.54% | Cell viability % (BT-20 cells; BT-20, 20 uM, 48 h, repeats, 20 µM): 24.61% and 32.37% | viability at 0.5 µM (BT-20 cells; Homo sapiens, BT-20, 48 h, BT-20, 500 nM, repeats, read-out: Cell viability %): 89.8% | viability at 0.75 µM (BT-20 cells; Homo sapiens, BT-20, 48 h, BT-20, 750 nM, repeats, read-out: Cell viability %): 88.9% | viability at 2.5 µM (BT-20 cells; Homo sapiens, BT-20, 48 h, BT-20, 2.5 uM, repeats, read-out: Cell viability %): 98.6% | viability at 5 µM (BT-20 cells; Homo sapiens, BT-20, 48 h, BT-20, 5 uM, repeats, read-out: Cell viability %): 73.8% | viability at 7.5 µM (BT-20 cells; Homo sapiens, BT-20, 48 h, BT-20, 7.5 uM, repeats, read-out: Cell viability %): 60.2% | viability at 10 µM (BT-20 cells; Homo sapiens, BT-20, 48 h, BT-20, 10 uM, repeats, read-out: Cell viability %): 45% | viability at 15 µM (BT-20 cells; Homo sapiens, BT-20, 48 h, BT-20, 15 uM, repeats, read-out: Cell viability %): 46.7% | viability at 20 µM (BT-20 cells; Homo sapiens, BT-20, 48 h, BT-20, 20 uM, repeats, read-out: Cell viability %): 28.3% | IC50 (BT-20 cells; Homo sapiens, BT-20, MTT, 48 h): 11.9 µM | viability at 0.1 µM (U-118 MG cells; Homo sapiens, U-118-MG, U-118 MG, 100 nM, repeats, read-out: Cell viability %): 82.5% | viability at 0.5 µM (U-118 MG cells; Homo sapiens, U-118-MG, U-118 MG, 500 nM, repeats, read-out: Cell viability %): 64% | viability at 0.75 µM (U-118 MG cells; Homo sapiens, U-118-MG, U-118 MG, 750 nM, repeats, read-out: Cell viability %): 70% | viability at 1 µM (U-118 MG cells; Homo sapiens, U-118-MG, U-118 MG, 1 uM, repeats, read-out: Cell viability %): 84.1% | viability at 2.5 µM (U-118 MG cells; Homo sapiens, U-118-MG, U-118 MG, 2.5 uM, repeats, read-out: Cell viability %): 70.7% | viability at 5 µM (U-118 MG cells; Homo sapiens, U-118-MG, U-118 MG, 5 uM, repeats, read-out: Cell viability %): 62.1% | viability at 7.5 µM (U-118 MG cells; Homo sapiens, U-118-MG, U-118 MG, 7.5 uM, repeats, read-out: Cell viability %): 66.3% | viability at 10 µM (U-118 MG cells; Homo sapiens, U-118-MG, U-118 MG, 10 uM, repeats, read-out: Cell viability %): 57.9% | viability at 15 µM (U-118 MG cells; Homo sapiens, U-118-MG, U-118 MG, 15 uM, repeats, read-out: Cell viability %): 51.1% | viability at 20 µM (U-118 MG cells; Homo sapiens, U-118-MG, U-118 MG, 20 uM, repeats, read-out: Cell viability %): 39.1% | IC50 (U-118 MG cells; Homo sapiens, U-118-MG, MTT): > 20 µM | Cell viability % (U-118 MG cells; U-118 MG, 100 nM, repeats, 0.1 µM): 87.05% | Cell viability % (U-118 MG cells; U-118 MG, 500 nM, repeats, 0.5 µM): 68.29% and 66.76% | Cell viability % (U-118 MG cells; U-118 MG, 750 nM, repeats, 0.75 µM): 77.02% and 67.38% | Cell viability % (U-118 MG cells; U-118 MG, 1 uM, repeats): 82.08% and 80.29% | Cell viability % (U-118 MG cells; U-118 MG, 2.5 uM, repeats): 64.2773% and 70.34% | Cell viability % (U-118 MG cells; U-118 MG, 5 uM, repeats): 65.5% and 62.23% | Cell viability % (U-118 MG cells; U-118 MG, 7.5 uM, repeats): 62.32% and 65.79% | Cell viability % (U-118 MG cells; U-118 MG, 10 uM, repeats): 65.41% and 61.07% | Cell viability % (U-118 MG cells; U-118 MG, 15 uM, repeats): 55.67% and 56.45% | Cell viability % (U-118 MG cells; U-118 MG, 20 uM, repeats): 44.6621% and 48.66% | melting point: 306 to 307 °C
